Where two headings read alike, the source gives them in different places.
Tests used:
MCF-7 cells [1] = test: DNA fragmentation analysis (gel electrophoresis); type: cell-based, human; details: MCF-7 cells, 4, 8, 16 μM, 48 or 72 h
Procedure: MCF-7 cells (2x10^5 cell/mL) were treated with 4, 8, and 16 μM doses of govaniadine incubated for 48 or 72 h, respectively. Medium containing 0.1% DMSO and thymoquinone were used as negative and positive controls, respectively. After the incubation period, DNA fragmentation was analyzed as described by. Gel electrophoresis was carried out with extracted DNA and visualized under UV light to assess the effect on DNA fragmentation (Quantum-ST4 1100/20 M; Fisher Biotec Pty Ltd., Wembley, Australia) following electrophoresis on a 2.0% agarose gel stained with ethidium bromide (EB).

Survivin mRNA = test: RT-qPCR survivin mRNA expression in MCF-7 cells; type: cell-based, human; details: 24 h incubation
Procedure: (§1) Cells were grown in T25 flasks (2 x 10^5 cells/mL) for 24 h at 37°C in 5% CO2 and treated with govaniadine (1 and 2 μM) in triplicate and incubated for further 24 h. Control cells were treated with 0.1% DMSO. After 24 h, cells were harvested and total RNA was extracted with TRIzol® Reagent (Invitrogen; Thermo Fisher Scientific, Inc., Carlsbad, CA, USA) according to the manufacturer's protocol. cDNA synthesis and RT-qPCR were performed as described previously. RT-qPCR was performed in Stratagene Mx3000P real time PCR machine using MESA Green qPCR Master Mix Plus for SYBR Assay (Eurogentec, Seraing, Liège, Belgium). Data were normalized to an internal reference gene GAPDH, and relative gene expression was assessed using the comparative Ct method (2^−ΔΔCt).

MCF-7 cells [2] = test: Reactive oxygen species (NBT) assay; type: cell-based, human; details: 1 and 2 μM, 24 h, vs control
Procedure: MCF-7 cells were seeded (2x10^5 cell/mL) in 96-well plates for 24 h at 37°C in 5% CO2. After 24 h, MCF-7 cells were treated with govaniadine (1 and 2 μM) in triplicate and incubated for 24 h. Control cells were treated with 0.1% DMSO. An assay for the intracellular conversion of nitro blue tetrazolium (NBT) to formazan by superoxide anion was used to measure the generation of reactive oxygen species in cells. NTB was subsequently added at a final concentration of 1.2 mM to the wells and incubated in the dark for 1 h at 37°C. The formazan content of the cells was then solubilized with […] of DMSO, and the absorbance was measured at OD 630 nm (Synergy™ HT Multi-Mode Microplate Reader).

MCF-7 cells [3] = test: SRB in vitro cytotoxicity assay, MCF-7; type: cell-based, human; details: for IC50: Homo sapiens, MCF7, SRB assay, read-out: IC50 (dose causing 50% inhibition) of MCF-7 cells
Procedure: (§2) Human breast cancer cell line [MCF-7, ER^+ (ATCC, HTB-22TM)] was cultured in Dulbecco's Modified Eagle Medium (DMEM) (Invitrogen, Carlsbad, CA, USA) supplemented with 10% Fetal bovine serum (FBS), 100 U/mL of penicillin, 0.1 mg/mL streptomycin, and 0.01 mg/mL insulin. Normal mammary epithelial cell line [MCF-10A (ATCC® CRL-10317)] was grown in Mammary Epithelium Basal Medium (MEBM) (Lonza, Walkersville, MD, USA). Both MCF-7 and MCF-10A cells were maintained in a humidified incubator at 37°C with 5% CO2. All the cell lines and 10% FBS were purchased from the American type cell culture (ATCC), Rockville, MD, USA. All chemicals were purchased from Sigma-Aldrich (St. Louis, MO, USA) unless otherwise specified.
(§3) MCF-7 and MCF-10A cells were trypsinized using […] trypsin/EDTA, plated in cell culture treated 96-well plates (5 x 10^3 cells/ well) and incubated for 24 h. After incubation, cells were treated with govaniadine (1, 2, 4, 8, or 16 μM) and maintained at 37°C with CO2 for 24, 48, or 72 h. After the incubation period, Sulforhodamine B (SRB) assay was performed as described previously to assess cell viability. Absorbance was read at optical density (OD) 540 nm (Synergy™ HT, BioTek, USA) and percentage cell viability was calculated. Negative controls contained only 0.1% DMSO and medium whereas paclitaxel was used as the positive control.

MCF-7 cells [4] = test: Annexin V/PI flow cytometry apoptosis detection; type: cell-based, human; details: 24 h; for early apoptotic cells: upper left quadrant; for late apoptotic cells: upper right quadrant
Procedure: MCF-7 cells (2x10^5 cell/mL) cultured in T25 cell culture flasks for 24 h at 37°C in 5% CO2 were exposed to govaniadine (4, 8, and 16 μM) for further 24 h. Control cells were treated with 0.1% DMSO. After 24 h, apoptosis mediated by the govaniadine on MCF-7 cells was detected by the Annexin V/ Propidium Iodide (PI) apoptosis detection kit (Santa Cruz, Texas, USA) according to the manufacturer's instructions by using a Partec Cyflow® Cube 6 Flow Cytometer. The data was analyzed with De Novo FCS Express version 4 software, and all experiments to detect apoptosis were done in triplicate.

caspase-7 = test: Caspase-Glo 3/7 assay of caspase 7 activity in MCF-7 cells; type: cell-based, human; details: 1 μM (P<0.05) and 2 μM (P<0.01), 24 h, vs control
Procedure: MCF-7 cells (2 x 10^5 cells/mL) were seeded in 96-well plates and maintained for 24 h at 37°C in 5% CO2. After 24 h, cells were exposed to govaniadine (1 and 2 μM) for further 24 h. Control cells were treated with 0.1% DMSO. Caspase-Glo® 3/7 assay (Promega, Madison, WI, USA) was used to measure caspase 7 activity according to the manufacturer's instructions, and luminescence was measured using a luminescence plate reader (Synergy™ HT, BioTek, USA).

MCF-7 cells [5] = test: Intracellular glutathione (GSH) measurement; type: cell-based, human; details: 1 and 2 μM, 24 h, vs control
Procedure: (§4) MCF-7 cells were seeded (2x10^5 cell/mL) in 24-well plates and maintained for 24 h at 37°C in 5% CO2. Then the cells were exposed to different concentrations of govaniadine (1 and 2 μM) for further 24 h. Control cells were treated with 0.1% DMSO. After 24 h, cells were trypsinized and pelleted. Cell suspension of approximately 10^6 cells per mL in an appropriate buffer was prepared and homogenized using sonication in ice. Cell homogenate was transferred to 1.5 mL eppendorf tubes and centrifuged at 15,000 rpm for 10 min at 4°C. The resulting supernatant (cell lysate) was transferred to a new 1.5 mL micro centrifuge tube and kept on ice. Total amount of protein present in the cell lysate was determined using bovine serum albumin (BSA) as the standard. Reduced GSH was estimated as described previously. The activity of GST was determined as described by. Intracellular GSH and GST levels were expressed as μM/mg of cell lysate protein.

p53 mRNA = test: RT-qPCR p53 mRNA expression in MCF-7 cells; type: cell-based, human; details: 24 h incubation
Procedure: as §1

MCF-7 cells [6] = test: Intracellular glutathione S-transferase (GST) measurement; type: cell-based, human; details: 1 and 2 μM, 24 h, vs control
Procedure: as §4

MCF-7 cells [7] = test: Cell morphology by phase contrast light microscopy; type: cell-based, human; details: 1-16 μM, 24, 48 and 72 h
Procedure: To determine the effect of govaniadine on the morphology of MCF-7 cells, cells (2x10^5 cells/mL) maintained in DMEM for 24 h were exposed to different concentrations (1, 2, 4, 8, and 16 μM) of govaniadine for further 24, 48, or 72 h at 37°C in 5% CO2. Control cells were treated with 0.1% DMSO. After the incubation period, morphological changes of the cells were observed and photographed on an inverted phase contrast microscope (Olympus CKX41SF, Japan).

MCF-10A cells = test: SRB in vitro cytotoxicity assay, MCF-10A; type: cell-based; details: Homo sapiens, read-out: IC50 against MCF-10A cells
Procedure: as §2, §3

Bax mRNA = test: RT-qPCR Bax mRNA expression in MCF-7 cells; type: cell-based, human; details: 24 h incubation
Procedure: as §1

MCF-7 cells [8] = test: Cell morphology and nuclear changes by AO/EB and Hoechst staining; type: cell-based, human; details: 2-16 μM, 24 h
Procedure: MCF-7 cells harvested by trypsinization upon reaching 70-80% confluence were seeded (5x10^4 cells/well) on cell culture treated cover slips placed in a 24-well cell culture plate and exposed to different concentrations (2, 4, 8, and 16 μM) of govaniadine for 24 h at 37°C in 5% CO2. Control cells were treated with 0.1% DMSO. After 24 h, cells were fixed with 4% formaldehyde, and AO/EB solution (10 μL) and Hoechst stain (0.005 mg/mL, 10 μL) were added for 2–5 min. Cells were then observed under a fluorescence microscope (Olympus Co., Tokyo, BX51TRF, Japan).

## COc1ccc2c(c1O)C1Cc3cc4c(cc3CN1CC2)OCO4 (stereo not drawn) [govaniadine]
MCF-7 cells [1]
  DNA fragmentation: DNA fragmentation in a time- and dose-dependent manner
Survivin mRNA; 1 μM
  survivin mRNA fold increase: 9.08 fold
Survivin mRNA; 2 μM
  survivin gene expression: not regulated
MCF-7 cells [2]
  ROS production: dose-dependent significant (p<0.05) increase
MCF-7 cells [3]; 24 h postincubation
  IC50: 3.05 ± 0.27 µM
MCF-7 cells [3]; 48 h postincubation
  IC50: 2.52 ± 0.31 µM
MCF-7 cells [3]; 72 h postincubation
  IC50: 1.6 ± 0.23 µM
MCF-7 cells [3]; comparison of IC50 values in MCF-7 and MCF-10A with reference drug
  Selectivity of cytotoxicity, MCF-7 versus MCF-10A cells: more selective towards MCF-7 cells than the paclitaxel
MCF-7 cells [4]; 4 μM
  early apoptotic cells: 3.31%
  late apoptotic cells: 11.15%
MCF-7 cells [4]; 16 μM
  early apoptotic cells: 7.33%
  late apoptotic cells: 41.42%
MCF-7 cells [4]; Homo sapiens, MCF7, 4 μM, lower left quadrant, read-out: intact viable cells
  viability at 4 µM: 78.6%
MCF-7 cells [4]; Homo sapiens, MCF7, 8 μM, lower left quadrant, read-out: intact viable cells
  viability at 8 µM: 61.1%
MCF-7 cells [4]; Homo sapiens, MCF7, 16 μM, lower left quadrant, read-out: intact viable cells
  viability at 16 µM: 36.8%
caspase-7
  Caspase-7 activity: activated significantly
MCF-7 cells [5]
  Intracellular GSH level: decreased significantly
p53 mRNA; 1 μM
  p53 mRNA fold change: 11.37 fold
p53 mRNA; 2 μM
  p53 mRNA fold change: 15.42 fold
MCF-7 cells [6]
  GST level: increased significantly
MCF-7 cells [7]
  Morphological changes (phase contrast microscopy): increased the number of apoptotic cells
MCF-10A cells; 24 h postincubation
  IC50: 269 ± 0.25 µM
MCF-10A cells; 48 h postincubation
  IC50: 223.4 ± 0.32 µM
MCF-10A cells; 72 h postincubation
  IC50: 194.9 ± 0.24 µM
Bax mRNA; 1 μM
  Bax mRNA fold change: 5.07 fold
Bax mRNA; 2 μM
  Bax mRNA fold change: 11.66 fold
MCF-7 cells [8]
  Nuclear changes (Hoechst 33258 staining): Nuclei with brighter hypercondensed chromatin

## CC(=O)O[C@H]1C(=O)[C@@]2(C)[C@H]([C@H](OC(=O)c3ccccc3)[C@]3(O)C[C@H](OC(=O)[C@H](O)[C@@H](NC(=O)c4ccccc4)c4ccccc4)C(C)=C1C3(C)C)[C@]1(OC(C)=O)CO[C@@H]1C[C@@H]2O [paclitaxel, reference compound]
MCF-7 cells [3]; 24 h postincubation
  IC50: 2.21 ± 0.15 µM
MCF-7 cells [3]; 48 h postincubation
  IC50: 0.13 ± 0.05 µM
MCF-7 cells [3]; 72 h postincubation
  IC50: 0.0089 ± 0.006 µM
MCF-10A cells; 24 h postincubation
  IC50: 11.9 ± 1.5 µM
MCF-10A cells; 48 h postincubation
  IC50: 6.06 ± 2.45 µM
MCF-10A cells; 72 h postincubation
  IC50: 3.11 ± 1.98 µM

Source: PMC6081593, “Cytotoxic and Apoptotic Effects of Govaniadine Isolated from Corydalis govaniana Wall. Roots on Human Breast Cancer (MCF-7) Cells” (BioMed Research International, 2018)
